The values below come from US20110256121A1, “METHODS AND KITS FOR DIAGNOSING OR MONITORING AUTOIMMUNE AND CHRONIC INFLAMMATORY DISEASES” (THE REGENTS OF THE UNIVERSITY OF MICHIGAN, priority 2008, published 2011).

Like-named read-outs stand apart in the source and are kept apart here.

For one experiment, the system named is CD70 mRNA. The experiment can be described thus: CD70 transcripts by real time RT-PCR in anti-CD3 + anti-CD28 stimulated CD4+ T cells. It is filed as cell-based, human. Particulars: 5 μm 5-azaC, 50 μm Pca, 20 μm Hyd, 40 μm U0126, 25 μm PD98059, 3 days. As for the experimental part:
In other studies, T cells were isolated by negative selection using magnetic beads and instructions provided by the manufacturer (Pan T cell Isolation Kit, Miltenyi), and the CD4+ or CD8+ subset was similarly isolated by magnetic cell sorting. Jurkat cells (E6-1) were cultured as previously described (See, e.g., Cornacchia et al., J Immunol 140:2197 (1998)). Purified human CD4+ T cells were first stimulated with plate bound anti-CD3 and soluble anti-CD28. Briefly, 24 well plates were coated with 300 μl of anti-CD3 (10 μg/ml in PBS—SouthernBiotech) 18 hours 4° C., washed, then 2×10^6 purified T cells were added to the wells in 2 ml RPMI 1640/10% FCS containing 2 μg/ml anti-CD28 (SouthernBiotech). The plates were incubated 37° C. in a humidified atmosphere containing 5% CO2 for 18-24 hours, then treated with 5 μm 5-azaC (Aldrich), 50 μm Pca (Sigma), 20 μm Hyd (Aldrich), 40 μm UO126 (Promega) or 25 μm PD98059 (Promega), and cultured for 3 additional days as described (See, e.g., Oelke et al., Arthritis Rheum 50:1850 (2004)).
(In qPCR the cycle at which signal appears reflects the starting amount.)

In a further experiment the test system is T cell CD70 expression. In words: CD70 expression on PHA-stimulated T cells by flow cytometry. It is filed as cell-based, human. The following applies: for CD70 expression on treated vs untreated PHA-stimulated T cells: unfractionated T cells, 3 days, dose-response for procainamide, PD98059, U0126. The method, then:
Cells and cell culture. Peripheral blood mononuclear cells (PBMCs) were isolated by density-gradient centrifugation. T cells were then isolated by E-rosetting (See, e.g., Golbus et al., Clin Immunol Immunopathol 46, 129 (1988)). […] Where indicated, the cells were cultured in RPMI 1640/10% fetal calf serum (FCS) supplemented with interleukin-2 (IL-2) (See, e.g., Richardson et al., Clin Immunol Immunopathol 55, 368 (1990)), in round-bottomed 5-ml culture tubes (Falcon). Cells were stimulated with 1 μg/ml of PHA (Remel) for 16 hours, then cultured in 24-well plates at a density of 1×10^6 for an additional 72 hours in the presence of 2-deoxy-5-azaC or 5-azaC (Sigma-Aldrich), procainamide (Sigma-Aldrich), hydralazine (Sigma-Aldrich), or the MEK inhibitors U0126 (Promega) or PD98059 (Promega). In other studies, PHA-stimulated PBMCs were cultured in RPMI 1640/10% FCS and treated with indomethacin, chloroquine, hydrocortisone, and 6-mercaptopurine (6-MP) (all from Sigma-Aldrich). TT48E, a cloned, CD4+, tetanus toxoid-reactive human T cell line, was cultured as previously described (Cornacchia et al., J Immunol 140, 2197 (1988); Richardson et al., Arthritis Rheum 35, 647 (1992)).
Flow cytometric analysis. The following fluorochrome-conjugated monoclonal antibodies were obtained from BD PharMingen (San Diego, Calif.): FITC-conjugated anti-human CD70, CD2, or isotype-matched controls; phycoerythrin (PE)-conjugated anti-CD2, CD4, and CD8; and CyChromeconjugated anti-HLA-DR, CD2, and isotype controls. Staining and multicolor flow cytometric analysis were performed (See, e.g., Hale et al., Cell Immunol 220, 51 (2002)) using saturating concentrations of antibody.
The panel of inhibitors used included 5-azaC, an irreversible DNA methyltransferase inhibitor (See, e.g., Glover and Leyland-Jones, Cancer Treat Rep 71, 959 (1987)) procainamide, a competitive DNA methyltransferase inhibitor (See e.g., Scheinbart et al., J Rheumatol 18, 530 (1991)), and the ERK pathway inhibitors PD98059, U0126, and hydralazine.
Studies were performed examining the effects of the DNA methylation inhibitors on CD70 expression in CD4+ and CD8+ T cell subsets.

In the next experiment the test system is TT48E. The following applies: 6 experiments.
In the next experiment the test system is KIR2DL2. In words: KIR2DL2 transcripts by real-time quantitative RT-PCR. It is filed as cell-based, human. Particulars: relative to β-actin, p<0.001 for both. As for the experimental part: T cell purification and culture. Peripheral blood mononuclear cells (PBMC) were isolated from healthy donors by density gradient centrifugation, stimulated for 18 hours with 1 μg/mlphytohemagglutinin (PHA) (Murex, Norcross, Ga.), then treated or not with 5 μm 5-azacytidine (5-azaC, Sigma, St. Louis, Mo.) for 72 hours as described (6). Total T cells, CD4^+ T cells or CD8′ T cells then were purified using the pan T cell isolation kit II or the CD4^+ and CD8^+ T cell isolation kit II from Miltenyi (Auburn, Calif.). T cells were typically >94% CD3^+ by flow cytometry. Jurkat cells (E6-1) were maintained in culture as described (11). This protocol was approved by the University of Michigan Institutional Review Board.
Real-time quantitative RT-PCR. Total RNA was isolated using the RNeasy Mini Kit (QIAGEN, Valencia, Calif.). Primers were designed to match polymorphic positions unique to KIR2DL2 or KIR2DL4 genes as described by Uhrberg et al. (13). Controls included β-actin primers as described (14). Real-time quantitative RT-PCR was performed with a Rotor-Gene 3000 (Corbett Robotics, San Francisco, Calif.) and QuantiTect SYBR Green RT-PCR kit (QIAGEN) according to manufacturer's instructions. cDNA synthesized from T cells was used to generate standard curves for β-actin, KIR2DL2 and KIR2DL4, and each experiment was repeated at least twice.
Confirmation at the protein and mRNA levels. […]

For the compound `N#CC(=C(/N)Sc1ccccc1N)/C(C#N)=C(\N)Sc1ccccc1N` [U0126], the “CD70 transcripts relative to β-actin, treated vs untreated” value with CD70 mRNA is recorded as “increase CD70 transcripts”. The “increase of CD70 MFI on CD4+ T cells” value in the experiment with T cell CD70 expression (40 μM U0126, n=4, P=0.039) was 3.20±0.44 fold. Also, the “CD70 expression on CD4+ T cells” value with T cell CD70 expression is listed as “increased CD70 expression on CD4+ T cells”. Moreover, in the experiment with T cell CD70 expression (U0126, P=0.085, stated in the CD8+ context), the “increase of CD70 MFI in T cells treated with U0126 (FIG. 2I)” value was determined as 2.83±0.95 fold. Further, the “CD70 expression on treated vs untreated PHA-stimulated T cells” value in the experiment on T cell CD70 expression (1 μM 5-azaC) is given as “increase in CD70 expression with treatment”. Moreover, in the experiment on TT48E (40 μM U0126, 3 days, P=0.004), the “increase of CD70 expression on TT48E” value was determined as 1.87±0.37 fold.

Take `Nc1ncn([C@@H]2O[C@H](CO)[C@@H](O)[C@H]2O)c(=O)n1` [5-azaC, 5-azacytidine]: in the experiment on CD70 mRNA, the “CD70 transcripts relative to β-actin, treated vs untreated” value was “increase CD70 transcripts”. For the same compound, the “increase of CD70 MFI on CD4+ T cells” value in the experiment on T cell CD70 expression (1 μM 5-azaC, n=5, P=0.025) is on record as 1.53±0.45 fold. Besides, the “CD70 expression on CD4+ T cells” value in the experiment with T cell CD70 expression is “increased CD70 expression on CD4+ T cells”. In the experiment with T cell CD70 expression (range of 5-azaC concentrations, n=5), the “5-azaC concentration producing the greatest effect on CD70 expression” value was 1 µM. Moreover, in the experiment with T cell CD70 expression (1 μM 5-azaC), the “CD70 expression on treated vs untreated PHA-stimulated T cells” value is listed as “small increase”. Further, the “KIR2DL2 mRNA in CD4+ and CD8+ T cells” value with KIR2DL2 is “increase is significant in both subsets”. In addition, in the experiment on TT48E (1 μM 5-azaC, 3 days, P=0.048), the “increase of CD70 expression on TT48E” value was found to be 1.69±0.33 fold.
